{"source": "EPA's ToxRefDB 2", "key": {"[1]": {"system": "mouse", "details": "Carcinogenicity; b6c3f1; Oral; Gavage/Intubation; dose end: 90 week; group: systemic; systemic / pathology microscopic / liver / carcinoma + systemic / in life observation / clinical signs / alopecia + systemic / in life …"}, "[2]": {"system": "mouse", "details": "Subchronic oral toxicity in rodents, b6c3f1, Feed, dose end: 14 week, group: systemic"}, "[3]": {"system": "rat", "details": "Carcinogenicity; other; Oral; Gavage/Intubation; dose end: 113 week; group: systemic; systemic / in life observation / body weight / body weight gain + systemic / in life observation / clinical signs / nasal discharge + …"}, "[4]": {"system": "rat", "details": "Subchronic oral toxicity in rodents, fischer, Feed, dose end: 14 week, group: systemic"}, "[5]": {"system": "mouse", "details": "Reproduction/developmental toxicity screening test, other, Injection, Subcutaneous, dose end: 1 PND"}, "[6]": {"system": "mouse", "details": "Carcinogenicity; other; Oral; Water; dose end: 18 week; group: systemic; systemic / pathology microscopic / lung / mixed tumor nos"}, "[7]": {"system": "mouse", "details": "Subchronic oral toxicity in rodents, BALB/c, Water, dose end: 141 day, group: systemic, systemic / pathology microscopic / liver / hemangioma + systemic / pathology microscopic / liver / hemangiosarcoma + systemic / pathology …"}, "[8]": {"details": "systemic / organ weight / liver / absolute + systemic / organ weight / liver / relative to body weight + systemic / pathology gross / liver…"}, "[9]": {"details": "systemic / organ weight / liver / absolute + systemic / organ weight / liver / relative to body weight + systemic / pathology microscopic / …"}, "[10]": {"details": "systemic / pathology microscopic / liver / vacuolization cytoplasmic + systemic / organ weight / liver / nos + systemic / pathology gross…"}, "[11]": {"details": "group: developmental, developmental / offspring survival late / [other] / [other]"}, "[12]": {"details": "group: maternal, reproductive / offspring survival early / dead fetuses / dead fetuses"}, "[13]": {"details": "group: offspring, systemic / pathology microscopic / liver / [other] + systemic / pathology gross / full gross necropsy / hemangiosarcoma"}, "[14]": {"details": "group: offspring, systemic / pathology microscopic / liver / [other] + systemic / pathology microscopic / liver / hemangioma + systemic / pathology …"}}}
{"smiles": "ClC(Cl)C(Cl)Cl", "note": "[1,1,2,2-Tetrachloroethane]", "values": [{"measurement": "LEL", "setting": "[1]", "result": 142, "unit": "mg/kg/day"}, {"measurement": "LOAEL", "setting": "[1]", "result": "> 284", "unit": "mg/kg/day"}, {"measurement": "NEL", "setting": "[1]", "result": "< 142", "unit": "mg/kg/day"}, {"measurement": "NOAEL", "setting": "[1]", "result": "≥ 284", "unit": "mg/kg/day"}, {"measurement": "LEL", "setting": "[2]; [8]", "result": 80, "unit": "mg/kg/day"}, {"measurement": "NEL", "setting": "[2]; [8]", "result": "< 80", "unit": "mg/kg/day"}, {"measurement": "LOAEL", "setting": "[2]; [9]", "result": 160, "unit": "mg/kg/day"}, {"measurement": "NOAEL", "setting": "[2]; [9]", "result": 80, "unit": "mg/kg/day"}, {"measurement": "LEL", "setting": "[3]", "result": 43, "unit": "mg/kg/day"}, {"measurement": "LOAEL", "setting": "[3]", "result": "> 76", "unit": "mg/kg/day"}, {"measurement": "NEL", "setting": "[3]", "result": "< 43", "unit": "mg/kg/day"}, {"measurement": "NOAEL", "setting": "[3]", "result": "≥ 76", "unit": "mg/kg/day"}, {"measurement": "LOAEL", "setting": "[4]; systemic / in life observation / body weight / body weight gain + systemic / pathology microscopic / liver / vacuolization cytoplasmic", "result": 40, "unit": "mg/kg/day"}, {"measurement": "NOAEL", "setting": "[4]; systemic / in life observation / body weight / body weight gain + systemic / pathology microscopic / liver / vacuolization cytoplasmic + …", "result": 20, "unit": "mg/kg/day"}, {"measurement": "LEL", "setting": "[4]; [10]", "result": 20, "unit": "mg/kg/day"}, {"measurement": "NEL", "setting": "[4]; [10]", "result": "< 20", "unit": "mg/kg/day"}]}
{"smiles": "CN(C)N=O", "note": "[N-Nitrosodimethylamine]", "values": [{"measurement": "LEL", "setting": "[5]; [11]", "result": 1, "unit": "mg/kg/day"}, {"measurement": "LOAEL", "setting": "[5]; [11]", "result": "> 50", "unit": "mg/kg/day"}, {"measurement": "NEL", "setting": "[5]; [11]", "result": "< 1", "unit": "mg/kg/day"}, {"measurement": "NOAEL", "setting": "[5]; [11]", "result": "≥ 50", "unit": "mg/kg/day"}, {"measurement": "LEL", "setting": "[5]; [12]", "result": 20, "unit": "mg/kg/day"}, {"measurement": "LOAEL", "setting": "[5]; [12]", "result": "> 50", "unit": "mg/kg/day"}, {"measurement": "NEL", "setting": "[5]; [12]", "result": 10, "unit": "mg/kg/day"}, {"measurement": "NOAEL", "setting": "[5]; [12]", "result": "≥ 50", "unit": "mg/kg/day"}, {"measurement": "LEL", "setting": "[5]; [13]", "result": 1, "unit": "mg/kg/day"}, {"measurement": "NEL", "setting": "[5]; [13]", "result": "< 1", "unit": "mg/kg/day"}, {"measurement": "LOAEL", "setting": "[5]; [14]", "result": "> 50", "unit": "mg/kg/day"}, {"measurement": "NOAEL", "setting": "[5]; [14]", "result": "≥ 50", "unit": "mg/kg/day"}, {"measurement": "LEL", "setting": "[6]", "result": 0.0667, "unit": "mg/kg/day"}, {"measurement": "LOAEL", "setting": "[6]", "result": "> 0.0667", "unit": "mg/kg/day"}, {"measurement": "NEL", "setting": "[6]", "result": "< 0.0667", "unit": "mg/kg/day"}, {"measurement": "NOAEL", "setting": "[6]", "result": "≥ 0.0667", "unit": "mg/kg/day"}, {"measurement": "LEL", "setting": "[7]", "result": 1.33, "unit": "mg/kg/day"}, {"measurement": "LOAEL", "setting": "[7]", "result": "> 1.33", "unit": "mg/kg/day"}, {"measurement": "NEL", "setting": "[7]", "result": "< 1.33", "unit": "mg/kg/day"}, {"measurement": "NOAEL", "setting": "[7]", "result": "≥ 1.33", "unit": "mg/kg/day"}]}
